From patent US20230203058A1, “MACROCYCLIC DIAMINE DERIVATIVES AS ENT INHIBITORS FOR THE TREATMENT OF CANCERS, AND COMBINATION THEREOF WITH ADENOSINE RECEPTOR ANTAGONISTS” (ITEOS BELGIUM SA, priority 2020, published 2023)
Where two headings read alike, the source gives them in different places.

Legend:
human ENT1 [1] = target: T1, human ENT1 (Homo sapiens, UniProt Q99808); test: Uridine transport inhibition assay (3H-uridine uptake in MDCKII-ENT1-LV cells); format: cell-based; settings: uridine 1 µM, 1 min at 25° C.
T1 sequence (Q99808 1-456): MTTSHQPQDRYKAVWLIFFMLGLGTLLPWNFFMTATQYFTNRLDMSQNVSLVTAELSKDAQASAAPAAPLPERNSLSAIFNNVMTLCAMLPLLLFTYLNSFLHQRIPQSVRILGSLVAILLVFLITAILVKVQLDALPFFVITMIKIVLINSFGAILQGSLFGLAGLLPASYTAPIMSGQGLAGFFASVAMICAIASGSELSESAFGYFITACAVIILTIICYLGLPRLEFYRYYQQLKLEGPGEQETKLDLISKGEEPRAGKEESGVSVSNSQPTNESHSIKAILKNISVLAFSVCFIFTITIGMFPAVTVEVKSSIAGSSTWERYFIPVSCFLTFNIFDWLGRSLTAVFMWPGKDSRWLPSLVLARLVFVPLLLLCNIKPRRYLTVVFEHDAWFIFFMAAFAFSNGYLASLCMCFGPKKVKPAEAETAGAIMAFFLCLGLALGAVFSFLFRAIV
Text: The aim of this study was to determine the potency of equilibrative nucleoside transporter 1 (ENT1) inhibitors by measuring ENT1-mediated transport is the cellular uptake assay. The human ENT1 transporter can be stably expressed in Madin-Darby Canine Kidney II (MDCKII) cells via transduction. Uridine is efficiently transported by ENT1 and is used as probe in the assay as 3 H-uridine. The interaction is detected as the modulation of the initial rate of 3 H-uridine transport by human ENT1 into MDCKII-ENT1-LV cells stably expressing ENT1 uptake transporter.

[2] = tested on: stimulated primary human T cells; test: T cell proliferation assay (rescue of proliferation in presence of ATP, CFSE dilution); format: cell-based; settings: 100 uM ATP
Procedure: The aim of this study was to determine the potency of equilibrative nucleoside transporter 1 (ENT1) inhibitors to rescue proliferation by stimulated primary human T cells incubated in the presence of 100 uM Adenosine triphosphate (ATP), in baseline conditions (condition A) or in the presence of various proteins known to bind small molecules (condition B). Condition A: X-VIVO15 Condition B: X-VIVO15, 2% Human Serum Albumine (HSA) and 0,1% α-1-Acid Glycoprotein (AAG)
Cryopreserved purified human CD3+ T cells were thawed and washed twice with RPMI1640 medium, UltraGlutamine containing 10% hiFBS.
Cells were suspended in PBS containing 10% hiFBS. Cells were stained with CFSE by adding 2 µM solution in PBS, to get a final 1 µM CFSE solution. Cells were incubated while rotating for 5 minutes. Reaction was stopped by adding PBS with 10% FBS and cells were centrifuged for 5 minutes at 1500 rpm.
Cells were resuspended at 1.6 ×10^6 cells/mL, either in X-VIVO15 medium or in 4% Human Serum Albumin and 0,2% α-1-Acid Glycoprotein. 50 µL of cell suspension (8×10^4 T cells) was added to wells of sterile round-bottom 96-well plates. Cells were activated by adding 50 µL of anti-CD3 anti-CD28 coated microbeads, suspended either in XVIVO-15 medium or in 4% HSA and 0,2% α-1-Acid Glycoprotein, at a ratio of one microbead per two cells. Serial dilutions of the ENT1 inhibitors were prepared in X-VIVO15 from 10 mM stock solutions in DMSO, and 50 µL was added to the wells. ATP powder was diluted in X-VIVO15, and 50 µL of this compound was added to the wells to reach a final assay concentration of 100 µM. Final volume of 200 µL. The experiments were also performed in 384 well plates - all volumes reduced by a factor of 4 (12,5 µL) with a final volume of 50 µL. Experiments were performed in duplicate. The cells were placed in a 37° C. humidified tissue culture incubator with 5% CO2 for 72 hours for 96 well plates, 96 hours for 384 well plates. After 72 or 96 hours, proliferation was measured determined by CFSE dilution via flow cytometry.

hERG ion channel = target: T2, hERG ion channel (Homo sapiens, UniProt Q12809); test: hERG ion channel inhibition (Patchliner automated patch-clamp, CHO cells); format: cell-based; settings: whole-cell, room temperature, 6-point curve up to 100 µM
T2 construct: Chinese Hamster Ovary cell lines stably expressing the full-length ion channel; expressed in transfected cells
Procedure: The compounds were tested for inhibition of hERG ion channel. 6-Point concentration-response curves were generated on the Patchliner automated patch-clamp using serial dilutions from a maximum test concentration of 100 µM.
Compounds were solubilised to 33 mM in DMSO before dilution in HBPS to 100 µM. 6-Point concentration-response curves were generated using serial dilutions from the top test concentration. Electrophysiological recordings were made from a Chinese Hamster Ovary cell lines stably expressing the full-length ion channel. Single cell ionic currents were measured in whole-cell configuration at room temperature (21-23° C.) using a Patchliner (Nanion Technologies). The internal solution for hERG contained (mM): 120 KF, 20 KCl, 10 EGTA, 10 HEPES and was buffered to pH 7.3. The external solution (HEPES-buffered saline, HBPS) contained (mM): 138 NaCl, 4.5 KCl, 1.8 CaC12, 1.0 MgC12, 10 HEPES, 10 glucose, buffered to pH7.4. Cells were clamped at a holding potential of -80 mV before a depolarising step appropriate for the hERG channel. Currents were measured from the step and referenced to the holding current. Compounds were incubated for 90 seconds. Concentration-response curves were generated by cumulative addition of compound with concentrations low to high. In all cases, steady-state inhibition was achieved before the next concentration of compound was added.
IC50 values were obtained from a 4-parameter logistic fit of the concentration-response data: […]

human ENT1 [3] = target: T1, human ENT1; test: ENT1 binding assay (competition with Sahenta-DY647 on JAR cells); set-up: JAR cells expressing ENT1 were bought from ATCC® (HTB-144TM); host or cells: JAR cells (human choriocarcinoma line; whole cells); settings: competition with Sahenta-DY647 100 nM, 4° C.
Procedure, shortened: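 Competition binding on intact JAR cells (50000 per well) in HBSS with 10 mM Hepes and 0.1% BSA. Cells pre-incubated with compound 30 min at 4 °C, then Sahenta-DY647 added at its IC90 (100 nM) for another 30 min at 4 °C; after washing, fluorescence read at Ex 630/Em 670 nm.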

human T cells = test: T cell stimulation assay (Example III, FIG. 1); format: cell-based; settings: ATP 100 µM
Procedure: FIG. 1A depicts a graph of log concentration (M) versus percent proliferation. Purified human T cells were activated with anti-CD3/CD28 dynabeads in the presence of ATP (100 µM) as a source of adenosine for 96 h and then proliferation was assessed by CFSE dilution.
FIG. 1B depicts a graph of log concentration of ENT1 inhibitor (M) versus percent proliferation. Experiment performed as in FIG. A with the addition of HSA and AAG to the culture medium (final concentration 2 and 0.1%, respectively).
Peripheral blood mononuclear cells (PBMCs) were first isolated via centrifugation of fresh whole blood over Lymphoprep using SepMate-50 tubes (both from […] Technologies) according to the manufacturer’s instructions. Human T cells were then isolated from the PBMCs using the EasySep Human T cell Isolation Kit ([…] Technologies) according to the manufacturer’s instructions and the cells were cryopreserved in FBS with 10% DMSO until required.
Cryopreserved human T cells were thawed on the day of the experiment and resuspended in PBS with 10% FBS at approximately 1 × 10^7 cells/ml. This cell suspension was diluted 1:1 with 2 µM CFSE solution (ThermoFisher Scientific) in PBS and incubated for 5 minutes at room temperature. The labelling reaction was quenched by further addition of PBS with 10% FBS, and then the cells were washed into X-VIVO15 medium (Lonza) for use in the T cell assay.
CFSE-labelled T cells were plated at 2 × 10^4 cells per well in 384 well plates in the presence of ATP (100 µM, Sigma-Aldrich) as a source of adenosine. Activation was driven by the addition of Dynabeads Human T-Activator CD3/CD28 (ThermoFisher Scientific) at a ratio of 0,5 beads per T cell. ENT1 inhibitor molecules including the reference molecule dilazep (Tocris Bioscience) were added, the volume of the wells was adjusted to 50 µl with X-VIVO15 medium and the plates were cultured in a humidified incubator for 96 h at 37° C. with 5% CO2. In some experiments the culture was supplemented with human serum albumin (HSA) and alpha-1-acid glycoprotein (AAG, both Sigma-Aldrich) at final concentrations of 2 and 0,1%, respectively.
Analysis of proliferation via CSFE dilution was performed by flow cytometry using a BD LSR Fortessa with data analysis on FlowJo (BD Biosciences).

MCA205 cells = test: Syngeneic fibrosarcoma model (MCA205, FIG. 4); format: in vivo, C57BL/6 mice
Procedure: FIG. 4 consists of three graphs: A, B, and C depicting the evalution of to assess the anti-tumor efficacy of compound Compound 8 in syngeneic fibrosarcoma model.
To assess the anti-tumor efficacy of compound Compound 8 in syngeneic fibrosarcoma model, C57BL/6 (n=8) were subcutaneously inoculated with […] MCA205 cells in the right flank. At day 8 after inoculation the mice were randomized according tumor size and received oral treatment of Compound 8 at 10 mg/kg or its vehicle. The mice were monitored 3 times a week for tumor measurements, and the data plotted below. […] (FIG. 4B and FIG. 4C) At day 21 after inoculation, 57% of the mice treated with 10 mg/kg of Compound 8 were responsive to Compound 8 treatment and at day 31 15% of the mice presented significant tumor growth delay with tumors below 1000 mm^3. The statistical analysis was performed in JMP software using linear fixed model.

[4] = Condition A: X-VIVO15, read-out: T Cell proliferation (Condition A) IC50
[5] = Condition B: X-VIVO15, 2% HSA and 0,1% AAG, read-out: (2) T Cell proliferation (Condition B) IC50
[6] = anti-CD3/CD28 dynabeads, 96 h (FIG. 1A), read-out: IC50 of restoration of T cell proliferation
[7] = with HSA 2% and AAG 0,1% (FIG. 1B), read-out: IC50 of restoration of T cell proliferation under high protein binding conditions

T2 sequence (Q12809 whole entry): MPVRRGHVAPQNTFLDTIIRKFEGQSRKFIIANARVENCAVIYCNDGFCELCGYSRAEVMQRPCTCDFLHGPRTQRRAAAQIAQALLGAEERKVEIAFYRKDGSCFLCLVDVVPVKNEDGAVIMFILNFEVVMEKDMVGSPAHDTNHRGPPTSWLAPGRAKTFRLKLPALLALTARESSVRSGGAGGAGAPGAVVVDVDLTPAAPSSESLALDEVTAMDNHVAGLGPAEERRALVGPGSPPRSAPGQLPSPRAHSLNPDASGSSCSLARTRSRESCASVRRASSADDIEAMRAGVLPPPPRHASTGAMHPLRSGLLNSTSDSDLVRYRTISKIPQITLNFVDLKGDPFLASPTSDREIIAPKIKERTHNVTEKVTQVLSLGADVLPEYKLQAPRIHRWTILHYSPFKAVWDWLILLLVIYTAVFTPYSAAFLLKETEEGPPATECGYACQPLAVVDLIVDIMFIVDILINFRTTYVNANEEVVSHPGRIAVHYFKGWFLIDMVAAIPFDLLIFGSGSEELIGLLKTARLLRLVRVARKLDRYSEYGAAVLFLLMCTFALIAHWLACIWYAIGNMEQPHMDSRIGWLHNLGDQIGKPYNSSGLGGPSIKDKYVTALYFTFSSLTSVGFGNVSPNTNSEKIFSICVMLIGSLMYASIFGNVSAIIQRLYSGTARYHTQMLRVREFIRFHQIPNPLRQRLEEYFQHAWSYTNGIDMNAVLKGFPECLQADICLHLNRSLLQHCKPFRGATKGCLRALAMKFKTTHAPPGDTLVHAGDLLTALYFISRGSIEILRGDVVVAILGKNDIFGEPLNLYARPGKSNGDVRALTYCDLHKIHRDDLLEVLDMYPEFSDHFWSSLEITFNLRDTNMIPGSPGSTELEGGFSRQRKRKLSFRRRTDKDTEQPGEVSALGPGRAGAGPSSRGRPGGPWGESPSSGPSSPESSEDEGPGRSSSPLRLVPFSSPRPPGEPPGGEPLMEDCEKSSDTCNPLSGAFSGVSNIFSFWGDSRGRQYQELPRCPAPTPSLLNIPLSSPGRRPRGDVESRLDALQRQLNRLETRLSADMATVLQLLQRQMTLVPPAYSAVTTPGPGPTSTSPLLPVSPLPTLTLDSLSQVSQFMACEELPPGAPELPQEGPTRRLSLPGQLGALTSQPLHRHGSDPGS

| SMILES | IC50 (human ENT1 [1]) | IC50 [2, 4] | IC50 [2, 5] | IC50 (hERG ion channel) | IC50 (human ENT1 [3]) | IC50 (human T cells; [6]) | IC50 (human T cells; [7]) | Median tumor growth kinetics versus vehicle (MCA205 cells; 10 mg/kg oral (FIG. 4A)) | Mice responsive to treatment (MCA205 cells; 10 mg/kg oral, day 21 after inoculation) | Mice with significant tumor growth delay, tumors below 1000 mm^3 (MCA205 cells; 10 mg/kg oral, day 31 after inoculation) |
| --- | --- | --- | --- | --- | --- | --- | --- | --- | --- | --- |
| COc1cc(C(=O)OC2CCCOc3cc(cc(OC)c3OC)C(=O)OCCCN3CCN(CC2)CC(F)(F)C3)cc(OC)c1OC (stereo not drawn) [Compound 4, 16,16-difluoro-74,75-dimethoxy-6-oxo-5,8-dioxa-1(1,4)-diazepana-7(1,3)-benzenacyclotetradecaphane-12-yl 3,4,5-trimethoxybenzoate] | 1 to 20 nM | < 1 nM | 1 to 20 nM | 73 µM | 1 to 20 nM |  |  |  |  |  |
| COc1cc(C(=O)OC2CCCOc3cc(cc(OC)c3OC)C(=O)NCCCN3CCCN(CC2)CC3)cc(OC)c1OC (stereo not drawn) [Compound 8, 74,75-dimethoxy-6-oxo-8-oxa-5-aza-1(1,4)-diazepana-7(1,3)-benzenacyclotetradecaphane-12-yl 3,4,5-trimethoxybenzoate] |  |  |  |  | 1 to 20 nM | 2 nM | 16 nM | slight change in tumor size | 57% | 15% |
| COc1cc(C(=O)O[C@@H]2CCCOc3cc(cc(OC)c3OC)C(=O)NCCCN3CCCN(CC2)CC3)cc(OC)c1OC [Compound 10, (12R)-74,75-dimethoxy-6-oxo-8-oxa-5-aza-1(1,4)-diazepana-7(1,3)-benzenacyclotetradecaphane-12-yl 3,4,5-trimethoxybenzoate] | 1 to 20 nM | 1 to 20 nM | 20 to 500 nM | 3.4 µM | 1 to 20 nM |  |  |  |  |  |
| COc1cc(C(=O)O[C@@H]2CCCOc3cc(cc(OC)c3OC)C(=O)N(C)CCCN3CCCN(CC2)CC3)cc(OC)c1OC [Compound 13, (12R)-74,75-dimethoxy-5-methyl-6-oxo-8-oxa-5-aza-1(1,4)-diazepana-7(1,3)-benzenacyclotetradecaphane-12-yl 3,4,5-trimethoxybenzoate] | 1 to 20 nM | 1 to 20 nM | > 500 nM |  | 1 to 20 nM |  |  |  |  |  |
| COc1cc2cc(c1OC)OCCCC(OC(=O)c1ccccn1)CCN1CCCN(CCCOC2=O)CC1 (stereo not drawn) [Compound 52, 74,75-dimethoxy-6-oxo-5,8-dioxa-1(1,4)-diazepana-7(1,3)-benzenacyclotetradecaphane-12-yl picolinate] |  |  |  | 2.7 µM | 1 to 20 nM |  |  |  |  |  |
| COc1cc(C(=O)OCCCN2CCCN(CCCOC(=O)c3cc(OC)c(OC)c(OC)c3)CC2)cc(OC)c1OC [Dilazep, dilazep, reference compound] |  | 1 to 20 nM | 20 to 500 nM | 0.9 µM |  | 71 nM | 337 nM |  |  |  |
